For one data set, the target named is T1, HDAC3/NCor2 (Homo sapiens, UniProt O15379).
T1 construct: recombinant, full-length HDAC protein; purchased BPS Biosciences
Description: HDAC biochemical assay (Example 16).

Data set [1] deals with T2, HDAC2 (Homo sapiens, UniProt Q92769). Description: HDAC biochemical assay of P5-P12 (Table P1). Also on record: The recombinant, full-length HDAC protein (BPS Biosciences) was incubated; purchased BPS Biosciences.
The next data set has as its target T3, HDAC3 (Homo sapiens, UniProt O15379).
T3 construct: The recombinant, full-length HDAC protein (BPS Biosciences) was incubated; purchased BPS Biosciences
In words: HDAC biochemical assay of P5-P12 (Table P1).

Another data set has as its target HDAC1 (Homo sapiens, UniProt Q13547). In words: HDAC biochemical assay of P5-P12 (Table P1). Also on record: The recombinant, full-length HDAC protein (BPS Biosciences) was incubated; purchased BPS Biosciences.
A further data set has as its system HDACs 1-3. Description: HDAC biochemical assay of P5-P12, summary statements.
Data set [2] deals with T2, HDAC2. Description: HDAC2 inhibition, trypsin-coupled kinetic fluorescence homogeneous assay (Example 10). In kind it is biochemical. Also on record: The recombinant, full-length HDAC protein (BPS Biosciences) was incubated; purchased BPS Biosciences. As to conditions: Conc (uM); logistic curve fit of activity versus concentration; some fits reached max iterations; read-out: X50.
Description: To measure the inhibitory effect on deacetylase function in vitro, a continuous kinetic biochemical assay miniaturized to 384-well plate format was optimized.
Fluorescence measurements were obtained in real-time on a Varioskan microtiter plate reader (Thermo).
A biochemical study of HDAC2 inhibition was carried out using the trypsin-coupled, kinetic fluorescence homogeneous assay described above.

The subject of data set [3] is colon cancer cell lines. In words: cells. Conditions: read-out: Average Concentration (M), LC50, Colon.
Description: (§1) All compounds submitted for screening were initially tested at a single high dose (10^-5 M) against the fill NCI 60 cell panel. Only compounds which satisfied pre-determined threshold inhibition criteria in a minimum number of cell lines progressed to a second round of testing utilizing a more comprehensive 5-dose inhibition assay. The threshold inhibition criteria for progression to the 5-dose assays were selected to efficiently capture compounds with anti-proliferative activity based on historical DTP screening data.
(§2) Concentrations for G150, IC50, TGI, and LC50 were calculated for all cell lines tested, and heat plots were prepared.
The next data set relates to melanoma cell lines. In words: cells. Conditions: read-out: Average Concentration (M), LC50, Melanoma.
The subject of data set [4] is NCI-60 cancer cell lines. As to conditions: five-dose.
Description: as §1, §2
In data set [5] the test system is colon cancer cell lines.
Description: as §1, §2
Data set [6] has as its system NCI-60 cancer cell lines. Description: cells.
Description: as §1, §2
Where [7] appears, read: read-out: GI50 concentrations (M), order of magnitude.

Like-named read-outs stand apart in the source and are kept apart here.

Sequence of HDAC1 (Q13547 whole entry): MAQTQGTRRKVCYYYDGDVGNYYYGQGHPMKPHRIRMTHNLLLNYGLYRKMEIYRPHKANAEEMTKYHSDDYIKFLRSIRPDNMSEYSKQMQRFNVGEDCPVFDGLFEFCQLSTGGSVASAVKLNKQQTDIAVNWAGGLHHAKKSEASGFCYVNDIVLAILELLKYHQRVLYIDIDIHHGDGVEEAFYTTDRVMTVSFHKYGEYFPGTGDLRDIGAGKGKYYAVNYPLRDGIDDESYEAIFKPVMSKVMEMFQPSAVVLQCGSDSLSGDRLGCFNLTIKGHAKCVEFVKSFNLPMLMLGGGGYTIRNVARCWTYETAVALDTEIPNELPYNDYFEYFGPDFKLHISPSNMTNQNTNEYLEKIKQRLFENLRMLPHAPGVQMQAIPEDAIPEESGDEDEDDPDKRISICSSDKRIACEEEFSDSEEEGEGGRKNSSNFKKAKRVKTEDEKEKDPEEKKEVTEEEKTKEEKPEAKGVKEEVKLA
T3 sequence (O15379 whole entry): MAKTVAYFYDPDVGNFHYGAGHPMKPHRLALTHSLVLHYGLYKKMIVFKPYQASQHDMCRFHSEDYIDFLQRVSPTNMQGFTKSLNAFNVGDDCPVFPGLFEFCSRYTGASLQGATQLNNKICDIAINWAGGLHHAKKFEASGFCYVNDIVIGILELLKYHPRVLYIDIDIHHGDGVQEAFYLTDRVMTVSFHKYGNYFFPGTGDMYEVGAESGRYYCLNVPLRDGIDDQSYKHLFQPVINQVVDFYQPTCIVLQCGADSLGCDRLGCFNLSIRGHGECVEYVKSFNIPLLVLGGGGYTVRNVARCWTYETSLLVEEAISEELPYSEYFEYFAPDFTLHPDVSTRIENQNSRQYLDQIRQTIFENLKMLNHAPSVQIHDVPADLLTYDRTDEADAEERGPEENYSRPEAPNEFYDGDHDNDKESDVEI
T3 sequence (Q9Y618 395-489 partner limits assumed): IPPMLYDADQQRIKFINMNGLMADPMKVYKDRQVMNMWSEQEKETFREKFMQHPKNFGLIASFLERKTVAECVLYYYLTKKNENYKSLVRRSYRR
T2 sequence (Q92769 whole entry): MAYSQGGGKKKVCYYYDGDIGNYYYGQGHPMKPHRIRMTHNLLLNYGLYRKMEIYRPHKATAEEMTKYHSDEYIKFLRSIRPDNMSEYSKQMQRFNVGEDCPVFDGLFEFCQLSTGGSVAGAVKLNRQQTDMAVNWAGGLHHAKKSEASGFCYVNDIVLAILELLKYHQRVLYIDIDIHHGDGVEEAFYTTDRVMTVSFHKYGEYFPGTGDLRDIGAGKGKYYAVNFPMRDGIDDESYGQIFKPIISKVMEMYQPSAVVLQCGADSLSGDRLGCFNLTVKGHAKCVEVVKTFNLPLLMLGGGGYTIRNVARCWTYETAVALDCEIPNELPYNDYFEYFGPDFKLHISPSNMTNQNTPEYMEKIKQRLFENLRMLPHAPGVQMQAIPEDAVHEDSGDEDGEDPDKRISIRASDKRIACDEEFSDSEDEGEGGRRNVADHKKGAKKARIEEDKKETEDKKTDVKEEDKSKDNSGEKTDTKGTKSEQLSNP
T1 sequence (O15379 whole entry): as the sequence (O15379 whole entry) above
T1 sequence (Q9Y618 395-489 partner limits assumed): as the sequence (Q9Y618 395-489 partner limits assumed) above
Description for HDAC3/NCor2: Thus, small-molecule inhibitors were arrayed at twelve-point dose-response (3-fold increments) in 384-well library plates and transferred by robotic pin device to replicate assay plates containing assay buffer under reducing conditions (TCEP 200 μM). A liquid handling device then transferred a tripeptide substrate terminating in acetyl-lysine and amide conjugated to 4-methyl-7-aminocoumarin (AMC), recombinant human histone deacetylase (BPS Bioscience, San Diego, Calif.), and recombinant human trypsin (Sigma-Aldrich, St. Louis, Mo.). Following deacetylase hydrolysis of acetyl-lysine, trypsin cleavage liberated the AMC fluorophore. Kinetic (fluorescence per unit time) and end-point (total fluorescence) data were captured by a multilabel plate reader. Replicate data were analyzed by curve-fit using logistic regression (Spotfire Decision-Site).
Description for renal cancer cell lines: as §1, §2

Regarding `CC(C)[C@@H]1NC(=O)[C@@]2(C)CSC(=N2)c2csc(n2)CNC(=O)C[C@H](/C=C/CCSC(c2ccccc2)(c2ccccc2)c2ccccc2)OC1=O`, the ring closure, yield of all isomers (from CC(C)[C@H](NC(=O)[C@@]1(C)CSC(c2csc(CNC(=O)OC(C)(C)C)n2)=N1)C(=O)O[C@@H](/C=C/CCSC(c1ccccc1)(c1ccccc1)c1ccccc1)CC(=O)OCC[Si](C)(C)C, amide bond, 2 steps) was 87%.
As to `CC(C)[C@@H]1NC(=O)[C@]2(C)CSC(=N2)c2cccc(n2)CNC(=O)C[C@@H](/C=C/CCSC(c2ccccc2)(c2ccccc2)c2ccccc2)NC1=O`, under “from COC(=O)C[C@@H](/C=C/CCSC(c1ccccc1)(c1ccccc1)c1ccccc1)NC(=O)[C@@H](NC(=O)[C@]1(C)CSC(c2cccc(CNC(=O)OC(C)(C)C)n2)=N1)C(C)C, amide bond, HATU/HOBt/DIPEA, acetonitrile, 0.97 mM, 3 steps”, the ring closure, yield of all isomers was 33%.
`CC(C)[C@@H]1NC(=O)[C@]2(C)CSC(=N2)c2cccc(n2)CNC(=O)C[C@@H](/C=C/CCSC(c2ccccc2)(c2ccccc2)c2ccccc2)OC1=O` gave a ring closure, yield of all isomers (from CC(C)[C@H](NC(=O)[C@]1(C)CSC(c2cccc(CNC(=O)OC(C)(C)C)n2)=N1)C(=O)O[C@H](/C=C/CCSC(c1ccccc1)(c1ccccc1)c1ccccc1)CC(=O)OCC[Si](C)(C)C, amide bond, HATU, acetonitrile, 0.96 mM, 18.0 h, 2 steps) of 20%.
Molecule `CC(C)[C@@H]1NC(=O)[C@]2(C)CSC(=N2)c2ccnc(c2)CNC(=O)C[C@@H](/C=C/CCSC(c2ccccc2)(c2ccccc2)c2ccccc2)NC1=O` had a ring closure, yield of all isomers (from COC(=O)C[C@@H](/C=C/CCSC(c1ccccc1)(c1ccccc1)c1ccccc1)NC(=O)[C@@H](NC(=O)[C@]1(C)CSC(c2ccnc(CNC(=O)OC(C)(C)C)c2)=N1)C(C)C, amide bond, HATU/HOBt/DIPEA, acetonitrile, 0.97 mM, 3 steps) of 32%.
`CC(C)[C@@H]1NC(=O)[C@]2(C)CSC(=N2)c2ccnc(c2)CNC(=O)C[C@@H](/C=C/CCSC(c2ccccc2)(c2ccccc2)c2ccccc2)OC1=O` had a ring closure, yield of all isomers (from CC(C)[C@H](NC(=O)[C@]1(C)CSC(c2ccnc(CNC(=O)OC(C)(C)C)c2)=N1)C(=O)O[C@H](/C=C/CCSC(c1ccccc1)(c1ccccc1)c1ccccc1)CC(=O)OCC[Si](C)(C)C, amide bond, HATU/HOBt/DIPEA, acetonitrile, 1.0 mM, 18.0 h, 2 steps) of 23%.
In the case of `CC(C)[C@@H]1NC(=O)[C@]2(C)CSC(=N2)c2coc(n2)CNC(=O)C[C@@H](/C=C/CCSC(c2ccccc2)(c2ccccc2)c2ccccc2)OC1=O`, the ring closure, yield of all isomers (from CC(C)[C@H](NC(=O)[C@]1(C)CSC(c2coc(CNC(=O)OC(C)(C)C)n2)=N1)C(=O)O[C@H](/C=C/CCSC(c1ccccc1)(c1ccccc1)c1ccccc1)CC(=O)OCC[Si](C)(C)C, amide bond, T3P, DCM, 0.99 mM, 2 steps) was determined as 35%.
Take `CC(C)[C@@H]1NC(=O)[C@]2(C)CSC(=N2)c2csc(n2)CNC(=O)C[C@@H](/C=C/CCSC(c2ccccc2)(c2ccccc2)c2ccccc2)NC1=O`: the ring closure, yield of all isomers (from COC(=O)C[C@@H](/C=C/CCSC(c1ccccc1)(c1ccccc1)c1ccccc1)NC(=O)[C@@H](NC(=O)[C@]1(C)CSC(c2csc(CNC(=O)OC(C)(C)C)n2)=N1)C(C)C, amide bond, HATU/iPr2NEt, MeCN, 0.96 mM, 3 steps) came to 50%.
For `C[C@@]12CSC(=N1)c1csc(n1)CNC(=O)C[C@@H](/C=C/CCSC(c1ccccc1)(c1ccccc1)c1ccccc1)OC(=O)[C@@H]1CCCN1C2=O`, for the setting “from CC(C)(C)OC(=O)NCc1nc(C2=N[C@](C)(C(=O)N3CCC[C@H]3C(=O)O[C@H](/C=C/CCSC(c3ccccc3)(c3ccccc3)c3ccccc3)CC(=O)OCC[Si](C)(C)C)CS2)cs1, amide bond, HATU/iPr2NEt, MeCN, 0.83 mM, 2 steps”, the ring closure, yield of all isomers came out at 43%.
`CC(C)[C@@H]1NC(=O)[C@]2(C)CSC(=N2)c2csc(n2)CNC(=O)C[C@@H](/C=C/CCCC(=O)Nc2ccccc2N)OC1=O` [Benzamide (12b)] gave an IC50 at HDAC3/NCor2 of 14000 nM.
In the case of `CCCCCCCC(=O)SCCC=CC1CC(=O)NCc2cccc(n2)C2=NC(C)(CS2)C(=O)NC(C(C)C)C(=O)O1` (centres unmarked) [Compound P5, Depsipeptide Pyridyl “IN”], the IC50 on HDAC2 [1] (Table P1) is 350 nM; against HDAC3 (Table P1), 332 nM; at HDAC1 (Table P1), 204 nM.
As to `CCCCCCCC(=O)SCCC=CC1CC(=O)NCc2cc(ccn2)C2=NC(C)(CS2)C(=O)NC(C(C)C)C(=O)O1` (centres unmarked) [Compound P7, Depsipeptide Pyridyl “OUT”], the IC50 on HDAC2 [1] (Table P1) was determined as 655 nM; at HDAC3 (Table P1), 320 nM; on HDAC1 (Table P1) it was 340 nM.
Turning to `CCCCCCCC(=O)SCCC=CC1CC(=O)NCc2cccc(n2)C2=NC(C)(CS2)C(=O)NC(C(C)C)C(=O)N1` (centres unmarked) [Compound P9, Peptide Isostere Pyridyl “IN”], the IC50 on HDAC2 [1] (Table P1) turned out to be 472 nM; against HDAC3 (Table P1) it was 332 nM; at HDAC1 (Table P1), 340 nM.
`CC(C)[C@@H]1NC(=O)[C@]2(C)CSC(=N2)c2cccc(n2)CNC(=O)C[C@@H](/C=C/CCS)NC1=O` [Compound P10, Peptide Isostere Pyridyl “IN” Thiol]: the results for the IC50 at HDAC2 [1] (Table P1), against HDAC3 (Table P1) and on HDAC1 (Table P1) were 69.8 nM, 42.5 nM and 42 nM, respectively. Further, the “IC50 range in words for HDACs 1-3” value in the data set with HDACs 1-3 was “double-digit nM range”.
`CCCCCCCC(=O)SCC/C=C/[C@@H]1CC(=O)NCc2cc(ccn2)C2=N[C@@](C)(CS2)C(=O)N[C@@H](C(C)C)C(=O)N1` [Compound P11, Peptide Isostere Pyridyl “OUT”]: the IC50 on HDAC2 [1] (Table P1) is 1240 nM; on HDAC3 (Table P1), 846 nM; on HDAC1 (Table P1) it was 817 nM. In the data set with HDACs 1-3, the “IC50 range in words for HDACs 1-3” value is given as “high nM-μM range”.
Consider `CCCCCCCC(=O)SCC/C=C/[C@@H]1CC(=O)NCc2nc(cs2)C2=N[C@@](C)(CS2)C(=O)N[C@@H](C(C)C)C(=O)N1` [Largazole peptide isostere], for which the IC50 at HDAC2 [1] is 825 nM; on HDAC3, 1150 nM; on HDAC1, 544 nM.
Regarding `CC(=O)N[C@@H](CC(C)C)C(=O)N[C@@H](CC(C)C)C(=O)N[C@H](C=O)CCCNC(=N)N` [Leupeptin, reference compound], the IC50 at HDAC2 [2] is 0.308 µM.
Same read-out and setting: the result for `CC(C)[C@@H]1NC(=O)[C@]2(C)CSC(=N2)c2csc(n2)CNC(=O)C[C@@H](/C=C/CCCCS)OC1=O` [ab6_162alr1 n + 2 thiol] reads 0.0785 µM.
`CCCCCCCC(=O)SCC/C=C/[C@@H]1CC(=O)NCc2cccc(n2)C2=N[C@@](C)(CS2)C(=O)N[C@@H](C(C)C)C(=O)O1` [compound of formula bb]: the CC50 in the data set on colon cancer cell lines [3] turned out to be 1.29e-05 M. Also, the CC50 with melanoma cell lines is 7.01e-07 M. For the same molecule, in the data set on NCI-60 cancer cell lines [4] (50% Growth Inhibition), the “Percent of Cell Lines Impacted (%), GI50” value was found to be 100%. Moreover, the “Percent of Cell Lines Impacted (%), LC50” value in the data set on NCI-60 cancer cell lines [4] (50% Lethal Concentration reached) was 12%. For the same molecule, in the data set on NCI-60 cancer cell lines [4] (Total Growth Inhibition), the “Percent of Cell Lines Impacted (%), TGI” value amounted to 47% and the “Total Impacted Cell Lines (n), TGI” value stood at 27. For the same molecule, the “Total Impacted Cell Lines (n), LC50, Colon” value in the data set with colon cancer cell lines [5] amounted to 2. The “Percent of Cell Lines Impacted (%), LC50, Colon” value with colon cancer cell lines [5] (five-dose) is listed as 29%. The “Total Impacted Cell Lines (n), LC50, Renal” value in the data set with renal cancer cell lines was 2. For the same molecule, the “Percent of Cell Lines Impacted (%), LC50, Renal” value in the data set on renal cancer cell lines (five-dose) is reported as 25%. Further, the GI50 in the data set with NCI-60 cancer cell lines [6] (read-out: Average Concentration (M), GI50) was found to be 7.62e-08 M.
As to `CCCCCCCC(=O)SCC/C=C/[C@@H]1CC(=O)NCc2nc(cs2)C2=N[C@@](C)(CS2)C(=O)N[C@@H](C(C)C)C(=O)N1` [drawing 78], the GI50 in the data set with NCI-60 cancer cell lines [6] (setting [7]) worked out at 1e-07 M.
As for `CCCCCCCC(=O)SCC/C=C/[C@@H]1CC(=O)NCc2cccc(n2)C2=N[C@@](C)(CS2)C(=O)N[C@@H](C(C)C)C(=O)O1` [drawing 79], the GI50 with NCI-60 cancer cell lines [6] (setting [7]) came out at 1e-08 M.

The values are drawn from US10676504B2 (Colorado State University Research Foundation, priority 2015, dated 2020).
